From patent publication US11197863B2, “Inhibitors of polo-like kinase 4 (PLK4) for treating pediatric embryonal tumors” (ANN AND ROBERT H. LURIE CHILDREN'S HOSPITAL OF CHICAGO, priority 2017, dated 2021)

Columns and labels:
[1] = system: AURKA or other PLK family members; conditions: cited from earlier work
TEK = TEK (Homo sapiens, UniProt Q02763); assay: Kinase activity screening (SelectScreen Kinase Profiling); format: biochemical; conditions: 10-point titration
Source text: (§5) These assays utilized various formats appropriate to the kinase, its substrate and its activity. Formats included the Z-LYTE™ Kinase Assay that determines the differential sensitivity of phosphorylated and non-phosphorylated peptide substrates to proteolytic cleavage using a FRET-based readout, the Adapta™ Universal Kinase Assay that employs a homogeneous, fluorescence-based immunoassay for the detection of ADP produced by kinases and the LanthaScreen™ Eu Kinase Binding Assay that utilizes an Alexa Fluor™ conjugated “tracer” and an Eu-labeled anti-tag antibody to measure binding of a compound to the kinase target [62].

[2] = system: PLK4 mRNA in MON rhabdoid cells; assay: qPCR for PLK4 expression; format: cell-based, human; conditions: 10, 50, 100 and 500 nM for 24, 48 and 72 hours vs 0.1% DMSO
Experimental: The expression of PLK4 (Hs00179514_m1) in each cell line was verified by TaqMan GE assays (Thermo Fisher Scientific, USA) using the housekeeping gene GAPDH (Hs02758991_g1) as reference. Total RNA (2 μg) was used to make cDNA using the Applied Biosystems High Capacity RNA-to-cDNA kit (Thermo Fisher Scientific). Reactions were performed in triplicate with adequate positive and negative controls. The normalized expression levels were calculated by […] method using the housekeeping gene and a pool of all samples as calibrator.

[3] = system: HFF-SCC058 human fibroblasts; assay: Invasion and migration assays (Transwell); format: cell-based; conditions: 100 nM, 24 hr
Experimental: (§1) Both migration and invasion were assessed using a 24-well Transwell chamber system (Corning, USA).[35] MON cells were plated at 20,000 per well for cell migration and at 50,000 per well coated with matrigel (200 μg/ml, 3 hr of solidification) for cell invasion. HFF-SCC058 cells were used as negative controls. […] All experiments were performed in triplicates.

zebrafish larvae = assay: In vivo toxicity assay in zebrafish larvae
Experimental: Control larvae were exposed to 2% DMSO. Survival and delays in development and morphologic abnormalities were recorded at three time-points (24, 48, and 72 h of treatment). For each condition, groups of 20 larvae were analyzed in triplicates totalizing 420 subjects and 60 controls. Two-way ANOVA was used to analyze the results.

MUSK = MUSK (Homo sapiens, UniProt O15146); assay: Kinase activity screening (SelectScreen Kinase Profiling); format: biochemical; conditions: 10-point titration
Source text: as §5

DAOY and D283 cells [4] = assay: Migration and invasion assays, MB cell lines; format: cell-based, human; conditions: 100 nM, 24 hour vs 0.1% DMSO
Experimental: as §1
(§2) For proliferation assay DAOY was plated with 5×10^4 cells per well and D283 was plated with 5×10^5 cells per well.

DAOY and D283 cells [5] = assay: Colony formation assay, MB cell lines; format: cell-based, human; conditions: 50 nM
Experimental: (§3) For each cell line, 200 cells were seeded into six-well plates, incubated for 14 days, fixed with formalin, stained with Cresyl violet (ACROS Organics, USA), and the number of colonies counted using Image J software (www.imagej.nih.gov).
as §2

RT and MB cell lines = assay: Cell cycle analysis by flow cytometry (polyploidy); format: cell-based, human; conditions: multiple RT and MB cell lines
Experimental: (§4) Cell cycle evaluation was performed by staining the cells with PI (Thermo Fisher Scientific, USA) according to manufacturer's instructions. […] Data was analyzed using Modfit LT from Verity Software House. Experiments were performed in triplicates.

[6] = system: MON, G401, BT-12, BT-16 DAOY and D283 cells; assay: Senescence beta galactosidase assay; format: cell-based, human; conditions: 100 nM, 48 hours; all cell lines
Experimental: For each cell line, cells were seeded in 6-well plates in triplicates with 100,000 cells per well. Treatment medium was added the next day and incubated for 48 or 72 hrs. After incubation, cells were washed twice with 1×PBS and 1 mL of the Fixation Buffer from the kit was added to each well of the plate and incubated at RT for 5 min. Cells were washed with 1×PBS and 1 mL of staining solution from the kit was added to each well and incubated at 37° C. without CO2 overnight. The next day, the cells were washed with 1×PBS and the numbers of blue stained cells (which indicate senescent cells) and unstained cells were counted in image J (www.imagej.nih.gov). The percentage of senescent cells was calculated.

AURKC = AURKC (Homo sapiens, UniProt Q9UQB9); assay: Kinase activity screening (SelectScreen Kinase Profiling); format: biochemical; conditions: read-out: kinase activity inhibited
Source text: as §5

breast cancer cells = conditions: Sampson et al.; cited from earlier work
DAOY MB cells = assay: Confluency assay (IncuCyte ZOOM); format: cell-based, human; conditions: increasing concentrations, 48 hour period, p-value=0.029
Experimental: For further evaluation of the effect of the PLK4 inhibitor over tumor cell proliferation, confluency was measured over a 48 hour period. MON, BT-12, G401 and DAOY cells were plated in 96-well plates with a density of 6×10^4 per well. […] Confluency was monitored for 48 hours by taking phase contrast images every 2 hours and measured using an IncuCyte ZOOM system (Essen BioScience, USA). Experiments were performed in triplicates.

[7] = system: HFF-SCC058 human fibroblasts; assay: Cell cycle analysis by flow cytometry (polyploidy); format: cell-based
Experimental: as §4

[8] = phase I, adults, preliminary results; cited from earlier work
[9] = system: CYP450 isoenzymes 1A2, 2B6, 2C8, 2C9, 2C19, 2D6, 2J2, 3A4 and 3A5 (except 3A4 BOMCC); assay: P450 profiling with Vivid substrates; format: in vitro ADME; conditions: human, probe Vivid substrates; isoenzymes recommended for testing by FDA guidance except 3A4 BOMCC; 500 nM highest tested concentration
DAOY and D283 cells [10] = assay: MTT proliferation assay, MB cell lines; format: cell-based, human; conditions: 72 hours of treatment vs 0.1% DMSO
Experimental: To evaluate cell proliferation, we used TACS MTT Cell Proliferation Assays (Trevigen, USA). We plated 2×10^3 cells on each well of a 96-well plate and the absorbance was measured after 48 and 72 hr at concentrations of 10, 50, 100, 200, and 500 nM. Each experiment was performed in triplicates.
as §2

Aurora kinase B = Aurora kinase B (Homo sapiens, UniProt Q96GD4); conditions: cited from earlier work
[11] = system: MON, G401, BT-12, and BT-16 cells; assay: Clonogenic assay, rhabdoid tumor cell lines; format: cell-based, human; conditions: 50-200 nM; analyzed 14 days after treatment
Experimental: as §3
To evaluate the effect of the PLK4 mutation over cell survival, MON-PLK4-mutated cells were compared with MON-Cas9. […] Controls were treated with 0.1% DMSO. All experiments were performed in triplicates.

normal breast cells = conditions: Sampson et al.; cited from earlier work

Sequence of MUSK (O15146 24-869): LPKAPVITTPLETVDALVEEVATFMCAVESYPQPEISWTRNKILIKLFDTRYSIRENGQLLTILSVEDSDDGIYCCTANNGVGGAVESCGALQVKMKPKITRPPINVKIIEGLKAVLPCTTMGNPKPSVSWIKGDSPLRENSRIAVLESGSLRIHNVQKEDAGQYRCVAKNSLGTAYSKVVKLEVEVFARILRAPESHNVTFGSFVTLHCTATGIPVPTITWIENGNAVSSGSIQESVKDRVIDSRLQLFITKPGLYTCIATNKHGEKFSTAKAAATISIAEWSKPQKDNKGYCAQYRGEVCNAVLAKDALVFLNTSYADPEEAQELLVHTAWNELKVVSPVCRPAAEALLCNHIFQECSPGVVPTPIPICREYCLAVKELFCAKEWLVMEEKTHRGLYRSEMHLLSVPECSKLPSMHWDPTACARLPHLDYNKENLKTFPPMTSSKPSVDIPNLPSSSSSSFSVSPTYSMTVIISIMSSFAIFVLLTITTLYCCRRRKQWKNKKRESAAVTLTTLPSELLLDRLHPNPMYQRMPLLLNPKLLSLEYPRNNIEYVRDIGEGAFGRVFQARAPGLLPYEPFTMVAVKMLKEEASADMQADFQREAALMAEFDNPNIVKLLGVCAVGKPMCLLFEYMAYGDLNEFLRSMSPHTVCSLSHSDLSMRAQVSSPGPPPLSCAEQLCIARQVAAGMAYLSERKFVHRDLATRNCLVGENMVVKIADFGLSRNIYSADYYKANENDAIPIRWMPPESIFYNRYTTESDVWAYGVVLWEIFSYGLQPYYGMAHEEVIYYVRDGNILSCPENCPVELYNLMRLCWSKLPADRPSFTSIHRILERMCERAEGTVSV
Sequence of AURKC (Q9UQB9 whole entry): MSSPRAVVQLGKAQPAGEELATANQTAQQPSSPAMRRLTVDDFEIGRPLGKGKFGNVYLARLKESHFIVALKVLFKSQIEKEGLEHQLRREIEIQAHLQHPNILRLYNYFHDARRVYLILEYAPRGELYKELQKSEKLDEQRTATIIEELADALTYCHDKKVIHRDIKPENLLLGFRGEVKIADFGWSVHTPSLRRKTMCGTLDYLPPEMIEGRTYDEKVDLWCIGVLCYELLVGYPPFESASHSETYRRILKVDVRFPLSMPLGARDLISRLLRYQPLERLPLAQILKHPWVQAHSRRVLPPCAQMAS
Sequence of TEK (Q02763 23-1124): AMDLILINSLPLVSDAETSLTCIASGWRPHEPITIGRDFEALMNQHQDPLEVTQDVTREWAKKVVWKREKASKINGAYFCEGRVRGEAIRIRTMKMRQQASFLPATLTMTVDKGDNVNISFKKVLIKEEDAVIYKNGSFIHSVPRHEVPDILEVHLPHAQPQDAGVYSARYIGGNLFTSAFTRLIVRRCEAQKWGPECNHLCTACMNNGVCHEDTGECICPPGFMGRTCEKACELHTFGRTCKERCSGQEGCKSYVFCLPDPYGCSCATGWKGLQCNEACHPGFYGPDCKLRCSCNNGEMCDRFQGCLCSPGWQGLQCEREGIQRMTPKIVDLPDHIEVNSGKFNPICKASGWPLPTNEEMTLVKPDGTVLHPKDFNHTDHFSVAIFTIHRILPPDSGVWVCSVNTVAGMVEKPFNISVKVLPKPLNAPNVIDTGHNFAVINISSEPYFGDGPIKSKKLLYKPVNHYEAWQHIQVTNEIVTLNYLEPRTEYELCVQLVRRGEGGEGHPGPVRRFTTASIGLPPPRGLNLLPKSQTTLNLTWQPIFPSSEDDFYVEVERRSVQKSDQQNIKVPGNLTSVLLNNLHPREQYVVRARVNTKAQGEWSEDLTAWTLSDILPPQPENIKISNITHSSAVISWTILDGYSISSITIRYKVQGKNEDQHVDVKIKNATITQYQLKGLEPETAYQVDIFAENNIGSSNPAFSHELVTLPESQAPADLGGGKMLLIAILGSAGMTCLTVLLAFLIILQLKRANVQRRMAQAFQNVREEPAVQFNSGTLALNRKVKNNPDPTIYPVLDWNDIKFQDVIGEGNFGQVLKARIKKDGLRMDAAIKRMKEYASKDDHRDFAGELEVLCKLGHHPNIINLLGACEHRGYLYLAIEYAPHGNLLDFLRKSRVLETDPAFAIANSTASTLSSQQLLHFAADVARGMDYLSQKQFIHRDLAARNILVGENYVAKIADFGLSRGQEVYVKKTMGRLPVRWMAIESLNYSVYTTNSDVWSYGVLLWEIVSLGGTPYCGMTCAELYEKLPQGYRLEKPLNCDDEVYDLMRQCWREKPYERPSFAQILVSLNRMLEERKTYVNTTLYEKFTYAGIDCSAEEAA
Sequence of Aurora kinase B (Q96GD4 whole entry, species assumed): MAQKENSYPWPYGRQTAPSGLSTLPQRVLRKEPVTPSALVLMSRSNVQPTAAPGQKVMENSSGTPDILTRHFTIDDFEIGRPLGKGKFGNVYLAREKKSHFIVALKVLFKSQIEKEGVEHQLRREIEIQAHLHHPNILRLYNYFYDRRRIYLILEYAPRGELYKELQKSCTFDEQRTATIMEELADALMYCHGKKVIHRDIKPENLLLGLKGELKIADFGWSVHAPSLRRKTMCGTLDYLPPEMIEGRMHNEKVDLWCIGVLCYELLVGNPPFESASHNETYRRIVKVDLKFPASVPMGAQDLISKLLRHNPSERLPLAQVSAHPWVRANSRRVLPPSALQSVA

For `COc1ccc2c(c1)[C@]1(C[C@H]1c1ccc3c(/C=C/c4ccc(CN5C[C@@H](C)O[C@@H](C)C5)cc4)n[nH]c3c1)C(=O)N2` [CFI-400945], the “inhibition of AURKA or other PLK family members” value [1] is given as “no significant inhibition”, the IC50 (TEK) is given as 109 nM and the “PLK4 expression (qPCR)” value [2] is given as “time dependent decrease in PLK4 expression”. The invasion and migration [3] was “no effects were observed”, the larvae deaths (zebrafish larvae; 10 nM to 20 μM for 3 days, over 400 larvae) was “no increase in larvae deaths” and the morphologic abnormalities (zebrafish larvae; extremely high concentrations (10 and 20 μM)) was “edema and body curvature were consistently observed”. The IC50 (MUSK) was 48.7 nM, the “cell migration and invasion” value (DAOY and D283 cells [4]) was “significant decrease in cell migration and invasion” and the colony formation (DAOY and D283 cells [5]) was “Complete inhibition of colony formation”. The degree of polyploidy (RT and MB cell lines) was over 8 N, the senescent cells [6] was “significant increase of senescent cells” and the inhibition at 0.5 µM (AURKC) was 84%. The “effect on breast cancer cells” value (breast cancer cells) was “cell death”, the “delay in reaching confluency (FC)” value (DAOY MB cells) was 1.70 and the polyploidy [7] was “not affecting”. For the same molecule, the tolerability [8] was “well tolerated at doses up to 72 ma”, the IC50 [9] was over 500 nM and the “cell proliferation (MTT)” value (DAOY and D283 cells [10]) was “significantly decreased proliferation”. For the same molecule, the “activity against Aurora kinase B” value (Aurora kinase B) was “certain activity”, the “colonies (clonogenic assay)” value [11] was “complete absence of colonies” and the “effect on normal breast cells” value (normal breast cells) was “unaffected”.
